Test results published in patent US6358885B1, “Substituted phenylheterocyclic herbicides” (Mississippi State University, priority 1992, dated 2002).

Assays:
Test in all cases: Test B preemergence/postemergence greenhouse plant response rating 0 to 10
purple nutsedge = assay type: in vivo, Cyperus rotundus; conditions: for Plant response rating, Nutsedge: 0 to 10 scale
Outline: (§1)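 Test chemicals, dissolved in a non-phytotoxic solvent, were applied to soil at planting and, at the same time, over foliage of seedlings at the one to four leaf stage.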

wild oat = assay type: in vivo, Avena fatua; conditions: for Plant response rating, Wild oat: 0 to 10 scale
Outline: as §1

morningglory = assay type: in vivo, Ipomoea hederacea; conditions: for Plant response rating, Morningglory: 0 to 10 scale
Outline: as §1

soybean = assay type: in vivo, Glycine max; conditions: for Plant response rating, Soybean: 0 to 10 scale
Outline: as §1

cheatgrass = assay type: in vivo, Bromus secalinus; conditions: for Plant response rating, Cheatgrass: 0 to 10 scale
Outline: as §1

bedstraw = assay type: in vivo, Galium aparine; conditions: for Plant response rating, Bedstraw: 0 to 10 scale
Outline: as §1

wild buckwheat = assay type: in vivo, Polygonum convolvulus; conditions: for Plant response rating, Wild buckwheat: 0 to 10 scale
Outline: as §1

lambsquarters = assay type: in vivo, Chenopodium album; conditions: for Plant response rating, Lambsquarter: 0 to 10 scale
Outline: as §1

barley = assay type: in vivo, Hordeum vulgare; conditions: for Plant response rating, Barley: 0 to 10 scale
Outline: as §1

giant foxtail = assay type: in vivo, Setaria faberii; conditions: for Plant response rating, Giant foxtail: 0 to 10 scale
Outline: as §1

rape = assay type: in vivo, Brassica napus; conditions: for Plant response rating, Rape: 0 to 10 scale
Outline: as §1

corn = assay type: in vivo, Zea mays; conditions: for Plant response rating, Corn: 0 to 10 scale
Outline: as §1

sorghum = assay type: in vivo, Sorghum bicolor; conditions: for Plant response rating, Sorghum: 0 to 10 scale
Outline: as §1

wheat = assay type: in vivo, Triticum aestivum; conditions: for Plant response rating, Wheat: 0 to 10 scale
Outline: as §1

rice = assay type: in vivo, Oryza sativa; conditions: for Plant response rating, Rice: 0 to 10 scale
Outline: as §1

cotton = assay type: in vivo, Gossypium hirsutum; conditions: for Plant response rating, Cotton: 0 to 10 scale
Outline: as §1

sugar beet = assay type: in vivo, Beta vulgaris; conditions: for Plant response rating, Sugar beet: 0 to 10 scale
Outline: as §1

chickweed = assay type: in vivo, Stellaria media; conditions: for Plant response rating, Chickweed: 0 to 10 scale
Outline: as §1

blackgrass = assay type: in vivo, Alopecurus myosuroides; conditions: for Plant response rating, Blackgrass: 0 to 10 scale
Outline: as §1

barnyardgrass = assay type: in vivo, Echinochloa crus-galli; conditions: for Plant response rating, Barnyardgrass: 0 to 10 scale
Outline: as §1

crabgrass = assay type: in vivo, Digitaria spp.; conditions: for Plant response rating, Crabgrass: 0 to 10 scale
Outline: as §1

velvetleaf = assay type: in vivo, Abutilon theophrasti; conditions: for Plant response rating, Velvetleaf: 0 to 10 scale
Outline: as §1

cocklebur = assay type: in vivo, Xanthium pensylvanicum; conditions: for Plant response rating, Cocklebur: 0 to 10 scale
Outline: as §1

SMILES: CCOC(=O)COc1cc(-c2nn3c(c2Cl)CCCC3)c(Cl)cc1Cl [Compound 73]
- Plant response rating, Nutsedge (purple nutsedge; POSTEMERGENCE, Rate 50 g/ha): 2
- Plant response rating, Nutsedge (purple nutsedge; PREEMERGENCE, Rate 50 g/ha): 0
- Plant response rating (0 to 10 scale), Nutsedge (purple nutsedge; PREEMERGENCE, Rate 200 g/ha): 0
- Plant response rating, Nutsedge (purple nutsedge; Rate 200 g/ha, POSTEMERGENCE): 3
- Plant response rating, Wild oat (wild oat; POSTEMERGENCE, Rate 50 g/ha): 1
- Plant response rating, Wild oat (wild oat; PREEMERGENCE, Rate 50 g/ha): 0
- Plant response rating (0 to 10 scale), Wild oat (wild oat; PREEMERGENCE, Rate 200 g/ha): 2
- Plant response rating, Wild oat (wild oat; Rate 200 g/ha, POSTEMERGENCE): 1
- Plant response rating, Morningglory (morningglory; POSTEMERGENCE, Rate 50 g/ha): 10
- Plant response rating, Morningglory (morningglory; PREEMERGENCE, Rate 50 g/ha): 0
- Plant response rating (0 to 10 scale), Morningglory (morningglory; PREEMERGENCE, Rate 200 g/ha): 0
- Plant response rating, Morningglory (morningglory; Rate 200 g/ha, POSTEMERGENCE): 9
- Plant response rating, Soybean (soybean; POSTEMERGENCE, Rate 50 g/ha): 2
- Plant response rating, Soybean (soybean; PREEMERGENCE, Rate 50 g/ha): 0
- Plant response rating (0 to 10 scale), Soybean (soybean; PREEMERGENCE, Rate 200 g/ha): 0
- Plant response rating, Soybean (soybean; Rate 200 g/ha, POSTEMERGENCE): 5
- Plant response rating, Cheatgrass (cheatgrass; POSTEMERGENCE, Rate 50 g/ha): 3
- Plant response rating, Cheatgrass (cheatgrass; PREEMERGENCE, Rate 50 g/ha): 0
- Plant response rating (0 to 10 scale), Cheatgrass (cheatgrass; PREEMERGENCE, Rate 200 g/ha): 2
- Plant response rating, Cheatgrass (cheatgrass; Rate 200 g/ha, POSTEMERGENCE): 6
- Plant response rating, Bedstraw (bedstraw; POSTEMERGENCE, Rate 50 g/ha): 7
- Plant response rating, Bedstraw (bedstraw; PREEMERGENCE, Rate 50 g/ha): 2
- Plant response rating (0 to 10 scale), Bedstraw (bedstraw; PREEMERGENCE, Rate 200 g/ha): 9
- Plant response rating, Bedstraw (bedstraw; Rate 200 g/ha, POSTEMERGENCE): 8
- Plant response rating, Wild buckwheat (wild buckwheat; POSTEMERGENCE, Rate 50 g/ha): 10
- Plant response rating, Wild buckwheat (wild buckwheat; PREEMERGENCE, Rate 50 g/ha): 0
- Plant response rating (0 to 10 scale), Wild buckwheat (wild buckwheat; PREEMERGENCE, Rate 200 g/ha): 3
- Plant response rating, Wild buckwheat (wild buckwheat; Rate 200 g/ha, POSTEMERGENCE): 10
- Plant response rating, Lambsquarter (lambsquarters; POSTEMERGENCE, Rate 50 g/ha): 9
- Plant response rating, Lambsquarter (lambsquarters; PREEMERGENCE, Rate 50 g/ha): 9
- Plant response rating (0 to 10 scale), Lambsquarter (lambsquarters; PREEMERGENCE, Rate 200 g/ha): 10
- Plant response rating, Lambsquarter (lambsquarters; Rate 200 g/ha, POSTEMERGENCE): 10
- Plant response rating, Barley (barley; POSTEMERGENCE, Rate 50 g/ha): 2
- Plant response rating, Barley (barley; PREEMERGENCE, Rate 50 g/ha): 0
- Plant response rating (0 to 10 scale), Barley (barley; PREEMERGENCE, Rate 200 g/ha): 0
- Plant response rating, Barley (barley; Rate 200 g/ha, POSTEMERGENCE): 3
- Plant response rating, Giant foxtail (giant foxtail; POSTEMERGENCE, Rate 50 g/ha): 5
- Plant response rating, Giant foxtail (giant foxtail; PREEMERGENCE, Rate 50 g/ha): 0
- Plant response rating (0 to 10 scale), Giant foxtail (giant foxtail; PREEMERGENCE, Rate 200 g/ha): 0
- Plant response rating, Giant foxtail (giant foxtail; Rate 200 g/ha, POSTEMERGENCE): 5
- Plant response rating, Rape (rape; POSTEMERGENCE, Rate 50 g/ha): 7
- Plant response rating, Rape (rape; PREEMERGENCE, Rate 50 g/ha): 2
- Plant response rating (0 to 10 scale), Rape (rape; PREEMERGENCE, Rate 200 g/ha): 2
- Plant response rating, Rape (rape; Rate 200 g/ha, POSTEMERGENCE): 10
- Plant response rating, Corn (corn; POSTEMERGENCE, Rate 50 g/ha): 5
- Plant response rating, Corn (corn; PREEMERGENCE, Rate 50 g/ha): 0
- Plant response rating (0 to 10 scale), Corn (corn; PREEMERGENCE, Rate 200 g/ha): 0
- Plant response rating, Corn (corn; Rate 200 g/ha, POSTEMERGENCE): 8
- Plant response rating, Sorghum (sorghum; POSTEMERGENCE, Rate 50 g/ha): 4
- Plant response rating, Sorghum (sorghum; PREEMERGENCE, Rate 50 g/ha): 0
- Plant response rating (0 to 10 scale), Sorghum (sorghum; PREEMERGENCE, Rate 200 g/ha): 0
- Plant response rating, Sorghum (sorghum; Rate 200 g/ha, POSTEMERGENCE): 5
- Plant response rating, Wheat (wheat; POSTEMERGENCE, Rate 50 g/ha): 2
- Plant response rating, Wheat (wheat; PREEMERGENCE, Rate 50 g/ha): 0
- Plant response rating (0 to 10 scale), Wheat (wheat; PREEMERGENCE, Rate 200 g/ha): 2
- Plant response rating, Wheat (wheat; Rate 200 g/ha, POSTEMERGENCE): 4
- Plant response rating, Rice (rice; POSTEMERGENCE, Rate 50 g/ha): 6
- Plant response rating, Rice (rice; PREEMERGENCE, Rate 50 g/ha): 0
- Plant response rating (0 to 10 scale), Rice (rice; PREEMERGENCE, Rate 200 g/ha): 0
- Plant response rating, Rice (rice; Rate 200 g/ha, POSTEMERGENCE): 6
- Plant response rating, Cotton (cotton; POSTEMERGENCE, Rate 50 g/ha): 10
- Plant response rating, Cotton (cotton; PREEMERGENCE, Rate 50 g/ha): 0
- Plant response rating (0 to 10 scale), Cotton (cotton; PREEMERGENCE, Rate 200 g/ha): 0
- Plant response rating, Cotton (cotton; Rate 200 g/ha, POSTEMERGENCE): 10
- Plant response rating, Sugar beet (sugar beet; POSTEMERGENCE, Rate 50 g/ha): 10
- Plant response rating, Sugar beet (sugar beet; PREEMERGENCE, Rate 50 g/ha): 5
- Plant response rating (0 to 10 scale), Sugar beet (sugar beet; PREEMERGENCE, Rate 200 g/ha): 5
- Plant response rating, Sugar beet (sugar beet; Rate 200 g/ha, POSTEMERGENCE): 10
- Plant response rating, Chickweed (chickweed; POSTEMERGENCE, Rate 50 g/ha): 2
- Plant response rating, Chickweed (chickweed; PREEMERGENCE, Rate 50 g/ha): 2
- Plant response rating (0 to 10 scale), Chickweed (chickweed; PREEMERGENCE, Rate 200 g/ha): 4
- Plant response rating, Chickweed (chickweed; Rate 200 g/ha, POSTEMERGENCE): 3
- Plant response rating, Blackgrass (blackgrass; POSTEMERGENCE, Rate 50 g/ha): 5
- Plant response rating, Blackgrass (blackgrass; PREEMERGENCE, Rate 50 g/ha): 0
- Plant response rating (0 to 10 scale), Blackgrass (blackgrass; PREEMERGENCE, Rate 200 g/ha): 0
- Plant response rating, Blackgrass (blackgrass; Rate 200 g/ha, POSTEMERGENCE): 5
- Plant response rating, Barnyardgrass (barnyardgrass; POSTEMERGENCE, Rate 50 g/ha): 7
- Plant response rating, Barnyardgrass (barnyardgrass; PREEMERGENCE, Rate 50 g/ha): 0
- Plant response rating (0 to 10 scale), Barnyardgrass (barnyardgrass; PREEMERGENCE, Rate 200 g/ha): 0
- Plant response rating, Barnyardgrass (barnyardgrass; Rate 200 g/ha, POSTEMERGENCE): 9
- Plant response rating, Crabgrass (crabgrass; POSTEMERGENCE, Rate 50 g/ha): 3
- Plant response rating, Crabgrass (crabgrass; PREEMERGENCE, Rate 50 g/ha): 0
- Plant response rating (0 to 10 scale), Crabgrass (crabgrass; PREEMERGENCE, Rate 200 g/ha): 0
- Plant response rating, Crabgrass (crabgrass; Rate 200 g/ha, POSTEMERGENCE): 6
- Plant response rating, Velvetleaf (velvetleaf; POSTEMERGENCE, Rate 50 g/ha): 6
- Plant response rating, Velvetleaf (velvetleaf; PREEMERGENCE, Rate 50 g/ha): 2
- Plant response rating (0 to 10 scale), Velvetleaf (velvetleaf; PREEMERGENCE, Rate 200 g/ha): 7
- Plant response rating, Velvetleaf (velvetleaf; Rate 200 g/ha, POSTEMERGENCE): 9
- Plant response rating, Cocklebur (cocklebur; POSTEMERGENCE, Rate 50 g/ha): 8
- Plant response rating, Cocklebur (cocklebur; PREEMERGENCE, Rate 50 g/ha): 0
- Plant response rating (0 to 10 scale), Cocklebur (cocklebur; PREEMERGENCE, Rate 200 g/ha): 0
- Plant response rating, Cocklebur (cocklebur; Rate 200 g/ha, POSTEMERGENCE): 10
